This passage reports activity and Activity results from ChEMBL document CHEMBL2074115, “Anthracyclines modulate multidrug resistance protein (MRP) mediated organic anion transport” (Biochim Biophys Acta, 1997).

Set-up in all cases: scale not given: the % may be the effect or the level left
The target of data set [1] is T1, Multidrug resistance-associated protein 1 (MRP1) (Homo sapiens, UniProt P33527). Briefly: TP_TRANSPORTER: inhibition of DNP-SG uptake (DNP-SG: 0.01 uM, Calcein-AM: 10 uM) in membrane vesicles from GLC4/ADR cells. Particulars: probe DNP-SG, read-out: Activity. The format is functional, cell membranes, GLC-4/ADR, Membrane vesicle.
The target of data set [2] is T1, Multidrug resistance-associated protein 1 (MRP1). Briefly: TP_TRANSPORTER: inhibition of DNP-SG uptake (DNP-SG: 0.01 uM, VP-16: 10 uM) in membrane vesicles from GLC4/ADR cells. It counts as functional, cell membranes, GLC-4/ADR, Membrane vesicle. Particulars: probe DNP-SG, read-out: Activity.
Data set [3] shares this target. Briefly: TP_TRANSPORTER: inhibition of DNP-SG uptake (DNP-SG: 0.01 uM, MTX: 10 uM) in membrane vesicles from GLC4/ADR cells. It counts as functional, cell membranes, GLC-4/ADR, Membrane vesicle. The settings on record: probe DNP-SG, read-out: Activity.
For data set [4], the target named is T2, Multidrug resistance-associated protein 1 (Homo sapiens, UniProt P33527). Put plainly: TP_TRANSPORTER: inhibition of DNP-SG uptake (DNP-SG: 0.01 uM, TLCAS: 10 uM) in membrane vesicles from GLC4/ADR cells. It counts as functional, cell membranes, Membrane vesicle. Particulars: glc-4/adr.
The target in data set [5] is T1, Multidrug resistance-associated protein 1 (MRP1). Put plainly: TP_TRANSPORTER: inhibition of DNP-SG uptake (DNP-SG: 0.01 uM, TCAS: 10 uM) in membrane vesicles from GLC4/ADR cells. It counts as functional, cell membranes, GLC-4/ADR, Membrane vesicle. Particulars: probe DNP-SG, read-out: Activity.
Data set [6] addresses T2, Multidrug resistance-associated protein 1. Put plainly: TP_TRANSPORTER: inhibition of DNP-SG uptake (DNP-SG: 0.01 uM, Taxol: 10 uM) in membrane vesicles from GLC4/ADR cells. It counts as functional, cell membranes, Membrane vesicle. The settings on record: glc-4/adr.
For data set [7] the target is unchanged. Put plainly: TP_TRANSPORTER: inhibition of DNP-SG uptake (DNP-SG: 0.01 uM, ICG: 10 uM) in membrane vesicles from GLC4/ADR cells. It counts as functional, cell membranes, Membrane vesicle. The settings on record: glc-4/adr.
Data set [8] addresses T1, Multidrug resistance-associated protein 1 (MRP1). Put plainly: TP_TRANSPORTER: inhibition of DNP-SG uptake (DNP-SG: 0.01 uM, Calcein: 500 uM) in membrane vesicles from GLC4/ADR cells. The format is functional, cell membranes, GLC-4/ADR, Membrane vesicle. The settings on record: probe DNP-SG, read-out: Activity.
The target is the same in data set [9]. Put plainly: TP_TRANSPORTER: inhibition of DNP-SG uptake (DNP-SG: 0.01 uM, TLC: 10 uM) in membrane vesicles from GLC4/ADR cells. It counts as functional, cell membranes, GLC-4/ADR, Membrane vesicle. The settings on record: probe DNP-SG, read-out: Activity.
For data set [10] the target is unchanged. Put plainly: TP_TRANSPORTER: inhibition of DNP-SG uptake (DNP-SG: 0.01 uM, Idarbicin: 10 uM) in membrane vesicles from GLC4/ADR cells. It counts as functional, cell membranes, GLC-4/ADR, Membrane vesicle. The settings on record: probe DNP-SG, read-out: Activity.

Where a name gives a salt, the structure may show the parent alone.

T2 sequence (P33527 whole entry): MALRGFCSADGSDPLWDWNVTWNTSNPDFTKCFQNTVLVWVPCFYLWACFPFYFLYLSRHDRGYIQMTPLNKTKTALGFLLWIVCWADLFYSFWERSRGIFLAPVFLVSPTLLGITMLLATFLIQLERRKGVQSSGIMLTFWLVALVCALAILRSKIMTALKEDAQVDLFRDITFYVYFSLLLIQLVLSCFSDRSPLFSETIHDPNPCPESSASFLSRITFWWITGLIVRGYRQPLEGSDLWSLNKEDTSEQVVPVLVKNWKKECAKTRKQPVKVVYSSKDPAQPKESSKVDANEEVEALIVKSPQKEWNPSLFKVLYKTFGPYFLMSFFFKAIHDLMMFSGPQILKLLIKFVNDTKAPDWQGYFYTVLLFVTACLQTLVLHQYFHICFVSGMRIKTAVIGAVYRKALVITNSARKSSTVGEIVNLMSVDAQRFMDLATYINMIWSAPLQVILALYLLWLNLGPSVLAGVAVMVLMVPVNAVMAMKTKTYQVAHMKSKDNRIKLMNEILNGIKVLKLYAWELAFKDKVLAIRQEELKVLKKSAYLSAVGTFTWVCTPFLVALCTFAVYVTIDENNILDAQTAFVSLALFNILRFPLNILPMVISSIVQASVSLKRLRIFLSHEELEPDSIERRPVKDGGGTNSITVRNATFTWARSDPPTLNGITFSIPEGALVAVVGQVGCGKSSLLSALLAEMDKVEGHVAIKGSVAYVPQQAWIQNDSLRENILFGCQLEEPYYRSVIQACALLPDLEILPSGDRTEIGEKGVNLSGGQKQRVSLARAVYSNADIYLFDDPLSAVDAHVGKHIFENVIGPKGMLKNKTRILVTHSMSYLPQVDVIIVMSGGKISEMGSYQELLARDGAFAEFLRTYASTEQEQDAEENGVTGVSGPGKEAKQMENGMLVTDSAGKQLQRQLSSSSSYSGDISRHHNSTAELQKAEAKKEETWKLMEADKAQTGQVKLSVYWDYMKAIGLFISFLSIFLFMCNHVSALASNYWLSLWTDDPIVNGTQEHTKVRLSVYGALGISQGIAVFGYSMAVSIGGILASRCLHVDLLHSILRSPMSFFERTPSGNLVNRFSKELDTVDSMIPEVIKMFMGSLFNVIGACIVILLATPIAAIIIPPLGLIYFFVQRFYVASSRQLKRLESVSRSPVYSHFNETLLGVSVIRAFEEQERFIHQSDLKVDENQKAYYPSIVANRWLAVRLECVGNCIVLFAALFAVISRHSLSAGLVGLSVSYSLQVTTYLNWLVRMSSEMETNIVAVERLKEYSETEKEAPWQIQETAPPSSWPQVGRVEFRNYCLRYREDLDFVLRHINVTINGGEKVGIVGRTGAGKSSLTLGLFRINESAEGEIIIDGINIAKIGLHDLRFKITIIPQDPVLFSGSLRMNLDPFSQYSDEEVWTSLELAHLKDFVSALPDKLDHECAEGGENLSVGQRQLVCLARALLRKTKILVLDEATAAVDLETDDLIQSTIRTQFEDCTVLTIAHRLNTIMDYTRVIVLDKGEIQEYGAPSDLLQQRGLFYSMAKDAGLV
T1 sequence (P33527 whole entry): as above

Regarding `CC(=O)OCOC(=O)CN(CC(=O)OCOC(C)=O)Cc1c(OC(C)=O)ccc2c1Oc1c(ccc(OC(C)=O)c1CN(CC(=O)OCOC(C)=O)CC(=O)OCOC(C)=O)C21OC(=O)c2ccccc21`, the activity at 10 µM in [1] was 44%.
On to `COc1cc([C@@H]2c3cc4c(cc3[C@@H](O[C@@H]3O[C@@H]5CO[C@@H](C)O[C@H]5[C@H](O)[C@H]3O)[C@H]3COC(=O)[C@H]23)OCO4)cc(OC)c1O` [ETOPOSIDE], for which the activity at 10 µM in [2] was found to be 50%.
Turning to `CN(Cc1cnc2nc(N)nc(N)c2n1)c1ccc(C(=O)N[C@@H](CCC(=O)O)C(=O)O)cc1` [METHOTREXATE], the activity at 10 µM in [3] came out at 82%.
Compound `C[C@H](CCC(=O)NCCS(=O)(=O)O)C1CC[C@H]2[C@@H]3CC[C@@H]4C[C@H](OS(=O)(=O)O)CC[C@]4(C)[C@H]3CC[C@]12C` (stereo not given in full) gave an Activity in data set [4] of 11%.
With `C[C@H](CCC(=O)NCCS(=O)(=O)O)C1CC[C@H]2[C@@H]3[C@H](O)C[C@@H]4C[C@H](OS(=O)(=O)O)CC[C@]4(C)[C@H]3C[C@H](O)[C@]12C` (stereo not given in full) [TAUROCHOLATE SULFATE], the activity at 10 µM in data set [5] stood at 76%.
On to `CC(=O)O[C@H]1C(=O)[C@@]2(C)[C@H]([C@H](OC(=O)c3ccccc3)[C@]3(O)C[C@H](OC(=O)[C@H](O)[C@@H](NC(=O)c4ccccc4)c4ccccc4)C(C)=C1C3(C)C)[C@]1(OC(C)=O)CO[C@@H]1C[C@@H]2O` [PACLITAXEL], for which, in data set [6], the Activity is 66%.
In [7], `CC1(C)C(/C=C/C=C/C=C/C=C2/N(CCCCS(=O)(=O)[O-])c3ccc4ccccc4c3C2(C)C)=[N+](CCCCS(=O)(=O)[O-])c2ccc3ccccc3c21.[Na+]` [INDOCYANINE GREEN] came in with an Activity of 34%.
As to `O=C(O)CN(CC(=O)O)Cc1cc2c(cc1O)Oc1cc(O)c(CN(CC(=O)O)CC(=O)O)cc1C21OC(=O)c2ccccc21` [OFTASCEINE], the activity at 500 µM in [8] was 40%.
As to `C[C@H](CCC(=O)NCCS(=O)(=O)O)[C@H]1CC[C@H]2[C@@H]3CC[C@@H]4C[C@H](O)CC[C@]4(C)[C@H]3CC[C@]12C` [TAUROLITHOCHOLIC ACID], the activity at 10 µM in data set [9] came out at 56%.
For `CC(=O)[C@]1(O)Cc2c(O)c3c(c(O)c2[C@@H](O[C@H]2C[C@H](N)[C@H](O)[C@H](C)O2)C1)C(=O)c1ccccc1C3=O` [IDARUBICIN], in data set [10], the activity at 10 µM came out at 52%.
